In PMC11452651 (Nature Communications, 2024):

Key:
[1] = test system: AP-1 promoter mediated transcription; assay type: cell-based; conditions: 1 μM, + PMA, 6 h
p38α = p38α (Homo sapiens, UniProt Q16539); experiment: Fluorescence polarization; assay type: binding; conditions: p38 Kiapp
JNK1 = JNK1 (Homo sapiens, UniProt P45983); experiment: Fluorescence polarization; assay type: binding; conditions: JNK1 Kiapp
ERK2 = ERK2 (Homo sapiens, UniProt P28482); experiment: Fluorescence polarization; assay type: binding; conditions: ERK2 Kiapp, Table 2, different electron withdrawing groups at C2 or cyclopentenone scaffold
[2] = Table 2, different electron withdrawing groups at C2 or cyclopentenone scaffold

Sequence of JNK1 (P45983 whole entry): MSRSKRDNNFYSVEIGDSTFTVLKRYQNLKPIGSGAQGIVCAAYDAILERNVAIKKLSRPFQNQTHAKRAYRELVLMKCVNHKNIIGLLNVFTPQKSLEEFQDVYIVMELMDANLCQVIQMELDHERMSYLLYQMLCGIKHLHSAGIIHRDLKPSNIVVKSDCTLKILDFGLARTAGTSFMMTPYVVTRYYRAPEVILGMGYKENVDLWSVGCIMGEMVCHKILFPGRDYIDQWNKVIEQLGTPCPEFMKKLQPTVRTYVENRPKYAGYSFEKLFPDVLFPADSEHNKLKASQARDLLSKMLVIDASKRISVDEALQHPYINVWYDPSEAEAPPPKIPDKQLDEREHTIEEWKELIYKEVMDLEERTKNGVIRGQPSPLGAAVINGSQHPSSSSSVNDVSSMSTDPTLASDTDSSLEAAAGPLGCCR
Sequence of p38α (Q16539 whole entry): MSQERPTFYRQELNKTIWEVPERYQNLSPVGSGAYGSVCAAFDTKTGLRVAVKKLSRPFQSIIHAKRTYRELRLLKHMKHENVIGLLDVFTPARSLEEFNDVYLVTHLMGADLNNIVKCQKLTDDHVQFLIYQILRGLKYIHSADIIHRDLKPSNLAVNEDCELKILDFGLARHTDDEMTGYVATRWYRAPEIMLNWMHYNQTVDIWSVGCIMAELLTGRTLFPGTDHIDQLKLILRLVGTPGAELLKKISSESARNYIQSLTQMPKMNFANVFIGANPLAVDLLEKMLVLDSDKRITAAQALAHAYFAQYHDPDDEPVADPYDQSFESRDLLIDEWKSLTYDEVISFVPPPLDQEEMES
Sequence of ERK2 (P28482 whole entry): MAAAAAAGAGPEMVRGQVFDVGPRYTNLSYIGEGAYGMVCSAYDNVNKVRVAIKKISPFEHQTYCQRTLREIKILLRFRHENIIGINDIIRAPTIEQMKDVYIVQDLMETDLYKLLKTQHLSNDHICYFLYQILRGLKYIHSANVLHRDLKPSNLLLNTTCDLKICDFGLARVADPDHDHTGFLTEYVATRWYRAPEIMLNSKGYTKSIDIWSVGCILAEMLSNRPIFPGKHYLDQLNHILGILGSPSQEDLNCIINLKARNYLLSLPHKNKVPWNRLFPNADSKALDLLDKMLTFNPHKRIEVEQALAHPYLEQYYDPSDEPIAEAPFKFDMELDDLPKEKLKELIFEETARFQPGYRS

Ki (p38α; Table 4, C4-extended compounds) [µM] | Ki (JNK1; Table 4, C4-extended compounds) [µM] | Ki (ERK2) [µM] | Ki (p38α; [2]) [µM] | Ki (JNK1; [2]) [µM] | SMILES | effect on AP-1 mediated transcription [1]
 |  |  |  |  | O=C(Nc1ccc2[nH]nc(-c3ccncc3)c2c1)[C@@H]1CCN(CC(=O)N2CCN(c3ccc(-c4ncccn4)cc3)CC2)C1 [SCH772984] | attenuate
 |  |  |  |  | Oc1ccc(-c2nc(-c3ccncc3)c(-c3ccc(F)cc3)[nH]2)cc1 [SB202190] | attenuate
1.1 ± 0.1 | 2.4 ± 0.3 |  |  |  | C#CCCOC(=O)[C@]1(C)C=C(C(=O)OC(C)(C)C)C(=O)CC1 [29S] | 
 |  | 169 ± 8.7 | 27.4 ± 3.3 | > 200 | CC1(C)C=C(C(=O)OC(C)(C)C)C(=O)C1 [compound 26] | 
 |  | 136 ± 14.1 | 28 ± 2.4 | > 200 | COC(=O)C1=CC(C)(C)CC1=O [compound 25] | 
2.8 ± 0.7 | 8.8 ± 2.6 |  |  |  | Cc1cc(-c2cccc(-n3cc(COC(=O)[C@]4(C)C=C(C(=O)OC(C)(C)C)C(=O)CC4)nn3)c2)c(C)c2c1CNCC2 [33S] | 
